We go through 2 compounds from patent US20220232861A1, “ZINC COMPOUNDS IN FOOD IMMERSION APPLICATIONS” (SAFE FOODS CORPORATION, priority 2019, published 2022).

Molecules are shown by their SMILES. Like-named read-outs stand apart in the source and are kept apart here.

Assay [1] has as its system Aerobic plate count. The following applies: Example 4; for Aerobic plate count: drums dipped 10 s, drip 60 s, control 7.9; for APC result versus control, in words: single treatments: 500 ppm zinc sulfate only (samples 6-10) or sulfuric acid pH 1.2 or less.
Experimental: (§6) All rinsate samples collected were placed in a refrigerator overnight. The samples were analyzed for 3M Aerobic Plate Count (APC) Petrifilm™ (AOAC Official Method 990.12), and Enterobacteriaceae (EB) Petrifilm™ (AOAC Official Method 2003.01). The samples were recorded as counts, which were then converted to log10 CFU/mL for statistical analysis of the means.
In assay [2] the test system is Enterobacteriaceae. The following applies: Example 4; for Enterobacteriaceae: drums dipped 10 s, drip 60 s, control 4.9; for EB analysis result versus control, in words: single treatments: 500 ppm zinc sulfate only (samples 6-10) or sulfuric acid pH 1.2 or less.
Experimental: as §6
Assay [3] concerns Enterobacteriaceae. The following applies: Example 3; for Enterobacteriaceae: drums dipped 10 s, drip 60 s, control 2.8. As for the experimental part: (§1) Drums (poultry) were purchased from a local retailer, frozen, and thawed for testing. The parts were allowed to sit at room temperature for 24 hours prior to testing. As a control, five drums (Sample IDs 1-5) were individually, aseptically rinsed (100 ml of rinsate).
(§2) Next, approximately 630 mL of 3,000 ppm zinc sulfate was added and manually agitated in 1 gallon of tap water in a 3-gallon bucket to yield a 500 ppm zinc sulfate solution. Five drums (Sample IDs 6-10) were fully submerged in the zinc sulfate solution, manually agitated for 10 seconds, then removed and allowed to drip for 60 seconds. The drums were individually, aseptically rinsed.
(§3) Next, 1 gallon of water and 4 ml of sulfuric acid were added to a bucket to yield a solution having a pH of 1.2. Five drums (Sample IDs 11-15) were fully submerged in the sulfuric acid solution, manually agitated for 10 seconds, then removed and allowed to drip for 60 seconds. The drums were individually, aseptically rinsed.
(§4) Lastly, 1 gallon of water and 630 mL of 3,000 ppm zinc sulfate/sulfuric acid solution were added to a bucket to yield a 500 ppm zinc sulfate/sulfuric acid solution having a pH of 1.2. Five drums (Sample IDs 16-20) were fully submerged in the zinc sulfate/sulfuric acid solution, manually agitated for 10 seconds, then removed and allowed to drip for 60 seconds. The drums were individually, aseptically rinsed.
(§5) All rinsate samples collected were placed in a refrigerator overnight. The samples were analyzed for 3M Aerobic Plate Count (APC) Petrifilm™ (AOAC Official Method 990.12), E. coli/Coliform (EC/CO) Petrifilm™ (AOAC Official Method 998.08), and Enterobacteriaceae (EB) Petrifilm™ (AOAC Official Method 2003.01). The samples were recorded as counts, which were then converted to log10 CFU/mL for statistical analysis of the means.

The test system of assay [4] is Aerobic plate count. The following applies: Example 3; for Aerobic plate count: drums dipped 10 s, drip 60 s, control 5.2. As for the experimental part: as §1, §2, §3, §4, §5
The test system of a further assay is Salmonella species. The following applies: ppm = mg of zinc per L of treatment solution; cited from earlier work.
Setting [5] is: 1.2 pH sulfuric acid alone, Sample IDs 11-15.
[6] abbreviates: 500 ppm zinc sulfate alone, Sample IDs 6-10.

Consider `O=S(=O)(O)O` [sulfuric acid, reference compound], for which, in the assay on Aerobic plate count [1] (setting [5]), the “Aerobic plate count, reduction from control” value (from here on “Aerobic plate count, reduction”) stood at 0.7 log10 CFU/ml and the Aerobic plate count turned out to be 7.2 log10 CFU/ml. The “APC result versus control, in words” value in the assay on Aerobic plate count [1] is “statistically significant reductions”. In addition, in the assay with Enterobacteriaceae [2] (setting [5]), the “Enterobacteriaceae, reduction from control” value (shortened to “Enterobacteriaceae, reduction”) came out at 0.5 log10 CFU/ml and the Enterobacteriaceae was found to be 4.4 log10 CFU/ml. Further, the “EB analysis result versus control, in words” value in the assay on Enterobacteriaceae [2] is listed as “statistically significant reductions”. In addition, in the assay with Enterobacteriaceae [3] (setting [5]), the “Enterobacteriaceae, reduction” value is listed as 1.1 log10 CFU/ml and the Enterobacteriaceae is reported as 1.7 log10 CFU/ml. Further, in the assay on Aerobic plate count [4] (setting [5]), the “Aerobic plate count, reduction” value worked out at 0.6 log10 CFU/ml and the Aerobic plate count turned out to be 4.6 log10 CFU/ml.

As for `O=S(=O)([O-])[O-].[Zn+2]` [zinc sulfate], in the assay with Aerobic plate count [1] (setting [6]), the “Aerobic plate count, reduction” value is 0.7 log10 CFU/ml and the Aerobic plate count came to 7.2 log10 CFU/ml. Moreover, in the assay on Aerobic plate count [1], the “APC result versus control, in words” value was “statistically significant microbial reduction”. In the assay on Enterobacteriaceae [2] (setting [6]), the “Enterobacteriaceae, reduction” value is recorded as 1.9 log10 CFU/ml and the Enterobacteriaceae is recorded as 3.3 log10 CFU/ml. In addition, the “EB analysis result versus control, in words” value in the assay with Enterobacteriaceae [2] is recorded as “statistically significant microbial reduction”. Also, in the assay with Enterobacteriaceae [3] (setting [6]), the “Enterobacteriaceae, reduction” value turned out to be 1.1 log10 CFU/ml and the Enterobacteriaceae is recorded as 1.7 log10 CFU/ml. Further, in the assay on Aerobic plate count [4] (setting [6]), the “Aerobic plate count, reduction” value is on record as 0.7 log10 CFU/ml and the Aerobic plate count worked out at 4.5 log10 CFU/ml. In addition, the “minimum inhibitory concentration (MIC)” value with Salmonella species is recorded as “about 0.25 ppm”.
